Results taken from publication PMC10116495 (Journal of the American Chemical Society, 2023).
Residues, ends and D or L forms follow the SMILES beside them. *: point of attachment. Cbz = O=C(OCc1ccccc1)*

Columns and labels:
NSD2-PWWP1 = target: T1, NSD2-PWWP1 (Homo sapiens, UniProt O96028); conditions: previously shown by the authors; cited from earlier work
T1 sequence (O96028 222-286 limits assumed): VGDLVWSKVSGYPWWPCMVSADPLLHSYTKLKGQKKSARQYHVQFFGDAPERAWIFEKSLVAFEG

NSD2 [1] = target: T2, NSD2 (Homo sapiens, UniProt O96028); assay: In-cell western; format: cell-based; conditions: U2OS cells, ICW
T2 sequence (O96028 1-627 limits assumed): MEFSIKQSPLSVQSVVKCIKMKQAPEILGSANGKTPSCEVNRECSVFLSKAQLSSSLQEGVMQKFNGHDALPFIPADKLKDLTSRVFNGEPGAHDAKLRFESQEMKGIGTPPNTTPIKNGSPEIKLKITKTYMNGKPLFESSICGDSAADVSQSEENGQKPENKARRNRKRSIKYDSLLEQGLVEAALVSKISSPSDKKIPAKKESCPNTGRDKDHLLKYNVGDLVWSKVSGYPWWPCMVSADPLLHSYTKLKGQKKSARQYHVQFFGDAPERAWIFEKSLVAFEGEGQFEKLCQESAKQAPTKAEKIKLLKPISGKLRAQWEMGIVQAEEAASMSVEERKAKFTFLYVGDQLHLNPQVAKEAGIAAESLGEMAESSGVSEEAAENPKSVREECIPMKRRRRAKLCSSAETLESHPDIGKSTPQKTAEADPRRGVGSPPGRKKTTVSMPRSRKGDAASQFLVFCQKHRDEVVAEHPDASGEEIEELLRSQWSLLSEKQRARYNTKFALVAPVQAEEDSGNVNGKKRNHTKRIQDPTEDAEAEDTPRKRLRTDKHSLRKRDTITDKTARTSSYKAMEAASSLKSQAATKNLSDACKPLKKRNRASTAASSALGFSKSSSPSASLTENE

NSD2-long [2] = target: T3, NSD2-long (Homo sapiens, UniProt O96028); assay: Western blot of NSD2 in U2OS cells; format: cell-based; conditions: 10 μM, without replenishing the compound
T3 sequence (O96028 1-1365): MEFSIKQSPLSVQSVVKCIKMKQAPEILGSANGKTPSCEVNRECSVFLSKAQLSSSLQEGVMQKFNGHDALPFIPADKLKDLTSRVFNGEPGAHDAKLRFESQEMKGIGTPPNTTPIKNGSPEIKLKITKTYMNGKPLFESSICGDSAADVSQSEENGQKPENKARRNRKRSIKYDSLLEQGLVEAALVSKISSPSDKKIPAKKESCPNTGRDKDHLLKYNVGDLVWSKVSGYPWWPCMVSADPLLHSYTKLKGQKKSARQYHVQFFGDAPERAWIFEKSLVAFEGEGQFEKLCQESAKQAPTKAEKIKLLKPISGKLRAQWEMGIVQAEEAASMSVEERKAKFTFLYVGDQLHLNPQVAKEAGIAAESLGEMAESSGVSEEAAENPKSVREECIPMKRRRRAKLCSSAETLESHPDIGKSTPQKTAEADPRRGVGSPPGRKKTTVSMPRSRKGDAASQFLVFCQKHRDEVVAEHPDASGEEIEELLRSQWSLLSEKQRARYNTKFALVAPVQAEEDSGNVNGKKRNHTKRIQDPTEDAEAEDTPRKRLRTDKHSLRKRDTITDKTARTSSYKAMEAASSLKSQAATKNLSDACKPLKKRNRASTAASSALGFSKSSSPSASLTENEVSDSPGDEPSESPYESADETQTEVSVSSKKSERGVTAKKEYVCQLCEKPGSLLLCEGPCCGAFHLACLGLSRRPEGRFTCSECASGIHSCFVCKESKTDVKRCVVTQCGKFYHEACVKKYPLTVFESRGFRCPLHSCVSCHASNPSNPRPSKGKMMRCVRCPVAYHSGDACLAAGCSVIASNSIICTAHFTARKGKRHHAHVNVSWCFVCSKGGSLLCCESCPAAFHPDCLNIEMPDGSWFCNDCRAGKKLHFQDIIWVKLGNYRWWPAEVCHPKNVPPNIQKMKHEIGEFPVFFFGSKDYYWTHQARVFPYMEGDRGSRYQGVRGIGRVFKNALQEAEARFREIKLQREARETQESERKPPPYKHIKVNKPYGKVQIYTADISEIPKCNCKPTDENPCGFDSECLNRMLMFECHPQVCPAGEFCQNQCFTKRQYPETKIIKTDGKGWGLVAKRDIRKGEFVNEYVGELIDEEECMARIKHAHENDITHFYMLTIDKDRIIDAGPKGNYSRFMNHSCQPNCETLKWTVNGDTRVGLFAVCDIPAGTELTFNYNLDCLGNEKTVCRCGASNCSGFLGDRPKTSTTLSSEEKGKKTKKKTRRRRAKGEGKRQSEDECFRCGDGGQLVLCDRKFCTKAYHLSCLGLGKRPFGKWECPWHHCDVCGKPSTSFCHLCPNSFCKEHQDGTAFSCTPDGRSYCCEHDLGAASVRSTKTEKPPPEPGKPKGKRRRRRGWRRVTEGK

[3] = target: T4, NanoLuc-NSD2-PWWP1 / HaloTag-Ubiquitin (Homo sapiens, UniProt O96028); assay: NanoBRET ubiquitination assay; format: cell-based; conditions: compared to UNC6934 or the vehicle
T4 sequence (O96028 222-286 limits assumed): T1 sequence (O96028 222-286 limits assumed)

NSD2 [4] = target: T2, NSD2; assay: Global proteomics; format: cell-based; conditions: U2OS cells, 5 μM, 6 h, 7863 quantifiable proteins
NSD1 = NSD1 (Homo sapiens, UniProt Q96L73); assay: Global proteomics and immunoblotting of NSD1 in U2OS cells; format: cell-based; conditions: 5 μM, 6 h proteomics, confirmed by immunoblotting
Chain of NSD1 (Q96L73 whole entry): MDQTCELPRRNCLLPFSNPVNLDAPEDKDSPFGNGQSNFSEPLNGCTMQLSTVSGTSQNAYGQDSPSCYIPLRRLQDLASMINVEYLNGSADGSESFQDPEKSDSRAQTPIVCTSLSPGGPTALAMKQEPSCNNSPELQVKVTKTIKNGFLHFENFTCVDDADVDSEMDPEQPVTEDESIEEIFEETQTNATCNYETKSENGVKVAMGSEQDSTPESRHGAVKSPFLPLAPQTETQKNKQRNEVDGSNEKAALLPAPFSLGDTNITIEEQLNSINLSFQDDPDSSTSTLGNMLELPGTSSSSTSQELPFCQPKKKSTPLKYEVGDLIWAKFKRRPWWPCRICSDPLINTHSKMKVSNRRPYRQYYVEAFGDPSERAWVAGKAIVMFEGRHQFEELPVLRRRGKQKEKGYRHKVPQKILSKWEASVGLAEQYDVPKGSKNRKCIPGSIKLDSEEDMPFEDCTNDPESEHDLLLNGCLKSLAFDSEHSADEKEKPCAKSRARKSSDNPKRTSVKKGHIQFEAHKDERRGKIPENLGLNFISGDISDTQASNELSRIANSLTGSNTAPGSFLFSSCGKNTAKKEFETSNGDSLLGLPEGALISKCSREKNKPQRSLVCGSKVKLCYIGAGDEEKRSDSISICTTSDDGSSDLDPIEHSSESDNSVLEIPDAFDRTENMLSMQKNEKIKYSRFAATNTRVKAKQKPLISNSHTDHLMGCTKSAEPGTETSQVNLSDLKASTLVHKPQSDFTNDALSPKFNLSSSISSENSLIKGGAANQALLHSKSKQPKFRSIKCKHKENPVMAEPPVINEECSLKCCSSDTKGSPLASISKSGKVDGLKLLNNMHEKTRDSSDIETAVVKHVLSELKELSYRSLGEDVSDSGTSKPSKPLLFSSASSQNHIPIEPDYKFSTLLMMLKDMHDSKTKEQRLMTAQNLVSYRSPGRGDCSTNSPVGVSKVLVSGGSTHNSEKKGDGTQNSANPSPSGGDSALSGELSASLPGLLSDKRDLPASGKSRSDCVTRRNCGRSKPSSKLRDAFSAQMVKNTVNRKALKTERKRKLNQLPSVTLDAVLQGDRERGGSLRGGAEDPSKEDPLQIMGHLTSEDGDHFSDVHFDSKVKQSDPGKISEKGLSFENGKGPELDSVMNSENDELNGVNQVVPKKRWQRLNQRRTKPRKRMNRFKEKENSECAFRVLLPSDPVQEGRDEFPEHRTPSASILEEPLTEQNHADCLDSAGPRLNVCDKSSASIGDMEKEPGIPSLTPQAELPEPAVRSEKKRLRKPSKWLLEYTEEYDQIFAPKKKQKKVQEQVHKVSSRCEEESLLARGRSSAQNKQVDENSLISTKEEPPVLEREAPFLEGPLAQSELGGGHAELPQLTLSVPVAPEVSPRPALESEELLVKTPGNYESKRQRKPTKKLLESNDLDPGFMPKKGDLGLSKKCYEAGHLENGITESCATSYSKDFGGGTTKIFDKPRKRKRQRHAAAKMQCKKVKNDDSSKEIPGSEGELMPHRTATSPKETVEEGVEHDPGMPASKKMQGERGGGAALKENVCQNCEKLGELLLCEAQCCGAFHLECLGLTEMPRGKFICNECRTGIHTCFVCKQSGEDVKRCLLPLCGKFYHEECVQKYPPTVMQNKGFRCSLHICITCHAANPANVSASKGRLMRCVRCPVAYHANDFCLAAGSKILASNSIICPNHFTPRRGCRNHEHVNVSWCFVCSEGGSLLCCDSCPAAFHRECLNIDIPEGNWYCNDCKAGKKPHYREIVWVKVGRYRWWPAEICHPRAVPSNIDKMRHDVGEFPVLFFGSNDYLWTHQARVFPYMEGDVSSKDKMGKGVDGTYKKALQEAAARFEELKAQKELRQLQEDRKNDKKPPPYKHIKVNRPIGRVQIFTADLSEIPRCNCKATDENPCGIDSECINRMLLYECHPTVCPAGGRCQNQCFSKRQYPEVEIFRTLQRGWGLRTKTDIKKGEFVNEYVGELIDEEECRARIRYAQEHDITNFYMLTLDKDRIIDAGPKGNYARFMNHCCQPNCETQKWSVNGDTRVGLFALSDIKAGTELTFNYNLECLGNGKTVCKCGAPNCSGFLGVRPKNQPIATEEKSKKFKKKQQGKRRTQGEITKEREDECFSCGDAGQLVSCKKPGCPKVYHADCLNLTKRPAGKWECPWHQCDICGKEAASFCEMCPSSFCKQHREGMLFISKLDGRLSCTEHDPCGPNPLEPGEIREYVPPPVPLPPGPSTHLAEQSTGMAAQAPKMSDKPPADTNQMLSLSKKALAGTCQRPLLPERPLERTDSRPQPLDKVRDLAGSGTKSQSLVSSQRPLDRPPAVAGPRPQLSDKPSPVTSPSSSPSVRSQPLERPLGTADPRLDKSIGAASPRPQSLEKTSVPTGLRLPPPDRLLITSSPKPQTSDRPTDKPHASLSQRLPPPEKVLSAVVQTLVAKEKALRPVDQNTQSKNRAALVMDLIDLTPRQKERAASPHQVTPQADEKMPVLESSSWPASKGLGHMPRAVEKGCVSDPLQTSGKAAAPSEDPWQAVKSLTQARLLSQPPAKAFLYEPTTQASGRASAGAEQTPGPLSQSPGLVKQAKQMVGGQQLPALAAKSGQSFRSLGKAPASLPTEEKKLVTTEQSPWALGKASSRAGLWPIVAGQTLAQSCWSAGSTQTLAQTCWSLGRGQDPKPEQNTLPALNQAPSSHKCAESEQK

NSD3 = target: T5, NSD3 (Homo sapiens, UniProt Q9BZ95); assay: Global proteomics and immunoblotting of NSD3 in U2OS cells; format: cell-based; conditions: 5 μM, 6 h proteomics, confirmed by immunoblotting
T5 sequence (Q9BZ95 1-1437): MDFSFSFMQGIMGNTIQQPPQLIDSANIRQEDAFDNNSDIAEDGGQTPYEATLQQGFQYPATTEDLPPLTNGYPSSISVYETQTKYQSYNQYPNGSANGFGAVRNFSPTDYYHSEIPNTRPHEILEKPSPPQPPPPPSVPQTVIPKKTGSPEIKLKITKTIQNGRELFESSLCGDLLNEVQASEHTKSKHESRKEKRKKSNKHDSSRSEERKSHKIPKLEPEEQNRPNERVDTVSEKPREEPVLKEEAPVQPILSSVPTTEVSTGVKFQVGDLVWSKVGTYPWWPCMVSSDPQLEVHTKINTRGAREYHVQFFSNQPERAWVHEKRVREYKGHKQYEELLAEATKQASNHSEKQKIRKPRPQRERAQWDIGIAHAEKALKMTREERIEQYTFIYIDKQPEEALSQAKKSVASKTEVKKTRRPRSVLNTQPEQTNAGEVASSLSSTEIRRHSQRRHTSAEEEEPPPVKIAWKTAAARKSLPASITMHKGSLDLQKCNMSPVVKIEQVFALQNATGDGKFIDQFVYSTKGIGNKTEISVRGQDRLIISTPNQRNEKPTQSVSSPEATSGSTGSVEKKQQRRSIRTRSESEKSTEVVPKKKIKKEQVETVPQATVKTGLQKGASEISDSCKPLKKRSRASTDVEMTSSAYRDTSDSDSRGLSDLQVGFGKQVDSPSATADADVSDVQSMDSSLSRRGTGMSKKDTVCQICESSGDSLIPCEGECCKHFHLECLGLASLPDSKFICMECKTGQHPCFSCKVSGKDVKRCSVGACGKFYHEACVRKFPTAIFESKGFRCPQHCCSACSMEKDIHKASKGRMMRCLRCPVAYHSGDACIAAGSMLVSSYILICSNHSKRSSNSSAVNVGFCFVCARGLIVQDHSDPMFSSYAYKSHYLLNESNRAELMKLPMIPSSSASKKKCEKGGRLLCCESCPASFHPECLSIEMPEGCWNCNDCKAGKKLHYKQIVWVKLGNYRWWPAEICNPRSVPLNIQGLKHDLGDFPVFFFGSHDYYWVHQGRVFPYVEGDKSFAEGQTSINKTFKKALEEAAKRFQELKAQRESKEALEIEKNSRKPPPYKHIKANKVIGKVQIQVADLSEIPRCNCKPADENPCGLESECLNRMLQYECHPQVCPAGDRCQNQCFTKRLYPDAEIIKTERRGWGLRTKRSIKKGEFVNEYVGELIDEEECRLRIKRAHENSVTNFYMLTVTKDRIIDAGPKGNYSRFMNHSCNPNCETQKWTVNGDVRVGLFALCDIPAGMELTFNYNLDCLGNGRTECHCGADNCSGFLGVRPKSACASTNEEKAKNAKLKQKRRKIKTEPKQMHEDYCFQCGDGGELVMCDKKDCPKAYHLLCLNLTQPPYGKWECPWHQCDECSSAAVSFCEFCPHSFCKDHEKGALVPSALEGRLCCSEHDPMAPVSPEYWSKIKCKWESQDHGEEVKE

NSD2-long [5] = target: T3, NSD2-long; assay: NSD2 immunoblot in KMS11 cells; format: cell-based; conditions: read-out: IB: NSD2-long DC50, 1−60 μM, 6 days
H3K36me2 [6] = assay: H3K36me2 immunoblot in KMS11 cells; format: cell-based
H3K36me1 = H3K36me1 immunoblot in KMS11 cells; format: cell-based
H3K36me3 = H3K36me3 immunoblot in KMS11 cells; format: cell-based
NSD2 and H3K36me2 [7] = assay: NSD2 and H3K36me2 immunoblot in MM1S cells; format: cell-based; conditions: NSD2 E1099K, 10 μM, 6 days
NSD2 and H3K36me2 [8] = assay: NSD2 and H3K36me2 immunoblot in RS411 cells; format: cell-based; conditions: RS411, NSD2 E1099K, 10 μM, 6 days
KMS11 cells [9] = assay: KMS11 CellTiter-Glo luminescence cell viability assay; format: cell-based; conditions: up to 30 μM, 8 days
MM1S cells = assay: MM1S dose-response treatment and proliferation assay; format: cell-based; conditions: increasing concentrations, 8 days, trypan blue cell count
MDA-MB-231 = MDA-MB-231 proliferation assay; format: cell-based; conditions: 20 μM, 5 days, confluency
U2OS = U2OS proliferation assay; format: cell-based; conditions: 20 μM, 5 days, confluency
HEK293 = HEK293 proliferation assay; format: cell-based; conditions: 20 μM, 5 days, confluency
KMS11 cells [10] = assay: Adhesion assay in KMS11 cells; format: cell-based; conditions: 25 μM, 14 days, compared to control (UNC8587)
NSD family members = conditions: immunoblot
NSD2 [11] = assay: MG132, MLN4924 and TAK243 inhibitor assay; format: cell-based; conditions: U2OS cells, 6 h, 10 μM MG132, 1 μM MLN4924 or 1 μM TAK243
H3K36me2 [12] = conditions: KMS11 t(4;14) multiple myeloma cells; cited from earlier work

O=C(CCCC[C@@H]1SC[C@@H]2NC(=O)N[C@@H]21)NCCOCCOCCOCCOCCOCCOCCOCCOCCOCCOCCOCCNC(=O)c1ccc(NC(=O)c2ccc(CN(C(=O)c3ccc4c(c3)OCC(=O)N4)C3CC3)cc2)cc1 [UNC7096]
binding to NSD2 (in words) (NSD2-PWWP1): maintains binding to NSD2

NCCCCCCNC(=O)c1ccc(NC(=O)c2ccc(CN(C(=O)c3ccc4c(c3)OCC(=O)N4)C3CC3)cc2)cc1 [UNC8153]
NSD2 degradation 30 min after compound treatment (NSD2 [1]; 3 and 10 μM): ~ 40%
hook effect in NSD2 reduction (NSD2 [1]; confirmed by immunoblotting): a hook effect occurs at high concentrations
extent of degradation of NSD2-long 96 h after a single treatment (NSD2-long [2]): above 60%
BRET signal between HaloTag-ubiquitin and NanoLuc-NSD2-PWWP1 [3]: increased BRET signals
selectivity of NSD2 degradation within the measurable proteome (NSD2 [4]): NSD2 was selectively degraded
degradation of NSD1 (NSD1): not degraded
degradation of NSD3 (NSD3): not degraded
DC50 (NSD2-long [5]): 3.41 µM
H3K36me2 levels, time course (H3K36me2 [6]; 20 μM, 2−8 days, loss after 6 days, control 8 days): Significant loss of the H3K36me2 mark
H3K36me2 levels, dose response (H3K36me2 [6]; 1−60 μM, 6 days): dose-dependent reduction of the H3K36me2 mark
H3K36me1 level (H3K36me1): increase in H3K36 monomethylation
H3K36me3 level (H3K36me3): decreased slightly
NSD2 and H3K36me2 modulation in MM1S cells (NSD2 and H3K36me2 [7]): similarly responsive
NSD2 and H3K36me2 modulation in RS411 cells (NSD2 and H3K36me2 [8]): similarly responsive
proliferation / cell viability of KMS11 cells (KMS11 cells [9]): did not result in a significant change in proliferation
proliferation of MM1S cells (MM1S cells): mild antiproliferative effect
proliferative potential of MDA-MB-231 cells (MDA-MB-231): no significant changes in proliferative potential
proliferative potential of U2OS cells (U2OS): no significant changes in proliferative potential
proliferative potential of HEK293 cells (HEK293): no significant changes in proliferative potential
cell adhesion to Matrigel (KMS11 cells [10]): Significant antiadhesive effects
selectivity for NSD2 over other NSD family members in MM1S cells (NSD family members): selectively degrades NSD2 over other NSD family members

CC(C)C[C@@H](C=O)NC(=O)[C@H](CC(C)C)NC(=O)[C@H](CC(C)C)NC(=O)OCc1ccccc1 [MG132] (Cbz-Leu-Leu-Leu-aldehyde)
effect of inhibitor on UNC8153-mediated NSD2 degradation (NSD2 [11]): completely ablates NSD2 degradation

NS(=O)(=O)OC[C@@H]1C[C@@H](n2ccc3c(N[C@H]4CCc5ccccc54)ncnc32)C[C@@H]1O [MLN4924]
effect of inhibitor on UNC8153-mediated NSD2 degradation (NSD2 [11]): prevented NSD2 degradation

O=C1COc2cc(C(=O)N(Cc3ccc(C(=O)Nc4ccncn4)cc3)C3CC3)ccc2N1 [UNC6934]
global H3K36me2 levels in KMS11 cells (H3K36me2 [12]): remain unaltered

NS(=O)(=O)OC[C@H]1C[C@@H](Nc2ccnc3cc(-c4cccc(SC(F)(F)F)c4)nn23)[C@H](O)[C@@H]1O [TAK243]
effect of inhibitor on UNC8153-mediated NSD2 degradation (NSD2 [11]): prevented NSD2 degradation
